Holding throughout (format): biochemical
One test has as its target T1, Caspase-3 (Homo sapiens, UniProt P42574).
T1 construct: mixing the compounds with the respective active caspases; purchased BioVision K153-100
T1 sequence (P42574 29-175 limits assumed): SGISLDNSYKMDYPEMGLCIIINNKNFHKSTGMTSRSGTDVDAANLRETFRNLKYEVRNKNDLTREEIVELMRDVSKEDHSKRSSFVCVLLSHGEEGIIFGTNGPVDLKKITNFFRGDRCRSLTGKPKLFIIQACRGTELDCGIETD
T1 sequence (P42574 176-277 limits assumed): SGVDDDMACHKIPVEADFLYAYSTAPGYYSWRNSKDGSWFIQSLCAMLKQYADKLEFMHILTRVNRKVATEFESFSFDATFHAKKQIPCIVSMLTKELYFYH
Kind of test: Caspase-3 inhibitor screening assay (BioVision kit, DEVD-AFC). Conditions: for inhibition at 10 µM: read-out: % Inhibition at 10 uM Casp3; for inhibition at 100 µM: read-out: % Inhibition at 100 uM Casp3. The procedure:
(§1) The efficacy of an array of compounds as an inhibitor of the activity of Caspases 1 through 10 were assessed by using the respective Caspase Inhibitor Drug Screening Kits (Caspase-1 Catalog #: K151-100, Caspase-2 Catalog #: K152-100, Caspase-3 Catalog #: K153-100, Caspase-4 Catalog #: K154-100, Caspase-5 Catalog #: K155-100, Caspase-6 Catalog #: K156-100, Caspase-7 Catalog #: K157-100, Caspase-8 Catalog #: K158-100, Caspase-9 Catalog #: K159-100, Caspase-10 Catalog #: K160-100, BioVision) following the instructions of the manufacturer. […] Active caspases cleaved their respective synthetic substrates to release free AFC, which was then quantified by fluorometry.
(§2) Briefly, the compounds were first tested at 2 concentrations (10 uM and 100 uM final) to determine if there is a hit. […] Each condition was tested in duplicates. […] For some samples, a smaller range of concentrations was tested depending on the % Inhibition results at 10 uM and 100 uM. Results were summarized in Tables 2, 3, and 4 herein after. Table 2 represents the IC50 values (uM) of the test compounds as inhibitors of the activity of the various caspases.
(§3) (*) RFU (no inhibitor control)—RFU (compound at a specific concentration)
(§4) RFU (no inhibitor control)

For another test, the target named is T2, Caspase-4 (Homo sapiens, UniProt P49662).
T2 construct: mixing the compounds with the respective active caspases; purchased BioVision K154-100
T2 sequence (P49662 81-270 limits assumed): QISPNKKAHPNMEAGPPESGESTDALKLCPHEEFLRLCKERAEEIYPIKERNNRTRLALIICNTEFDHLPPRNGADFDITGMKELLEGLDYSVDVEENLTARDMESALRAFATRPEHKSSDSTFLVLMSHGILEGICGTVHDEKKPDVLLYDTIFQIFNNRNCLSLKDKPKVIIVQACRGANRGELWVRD
T2 sequence (P49662 290-377 limits assumed): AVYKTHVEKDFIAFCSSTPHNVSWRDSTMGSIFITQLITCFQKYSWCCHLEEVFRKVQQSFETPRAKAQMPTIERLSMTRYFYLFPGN
The test can be described thus: Caspase-4 inhibitor screening assay (BioVision kit, LEVD-AFC). Conditions: for inhibition at 10 µM: read-out: % Inhibition at 10 uM Casp4; for inhibition at 100 µM: read-out: % Inhibition at 100 uM Casp4; for IC50: read-out: IC50 Casp4. How it is done: as §1, §2, §3, §4

A further test addresses T3, Caspase-5 (Homo sapiens, UniProt P51878).
T3 construct: mixing the compounds with the respective active caspases; purchased BioVision K155-100
T3 sequence (P51878 137-327 limits assumed): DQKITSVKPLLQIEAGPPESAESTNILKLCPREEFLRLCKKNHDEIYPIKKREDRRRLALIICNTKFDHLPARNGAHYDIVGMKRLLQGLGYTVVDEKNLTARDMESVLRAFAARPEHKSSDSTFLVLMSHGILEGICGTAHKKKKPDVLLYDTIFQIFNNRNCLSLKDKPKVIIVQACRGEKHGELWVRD
T3 sequence (P51878 347-434 limits assumed): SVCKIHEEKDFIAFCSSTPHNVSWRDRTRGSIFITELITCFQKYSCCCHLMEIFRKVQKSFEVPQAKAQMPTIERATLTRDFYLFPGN
The test can be described thus: Caspase-5 inhibitor screening assay (BioVision kit, WEHD-AFC). Conditions: for inhibition at 10 µM: read-out: % Inhibition at 10 uM Casp5; for inhibition at 100 µM: read-out: % Inhibition at 100 uM Casp5; for IC50: read-out: IC50 Casp5. The procedure: as §1, §2, §3, §4

A further test has as its target T4, Caspase-6 (Homo sapiens, UniProt P55212).
T4 construct: mixing the compounds with the respective active caspases; purchased BioVision K156-100
T4 sequence (P55212 24-179 limits assumed): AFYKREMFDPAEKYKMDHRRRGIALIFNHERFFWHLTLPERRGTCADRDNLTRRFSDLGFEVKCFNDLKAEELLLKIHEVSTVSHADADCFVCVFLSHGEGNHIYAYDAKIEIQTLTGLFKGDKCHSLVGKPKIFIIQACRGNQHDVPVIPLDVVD
T4 sequence (P55212 194-293 limits assumed): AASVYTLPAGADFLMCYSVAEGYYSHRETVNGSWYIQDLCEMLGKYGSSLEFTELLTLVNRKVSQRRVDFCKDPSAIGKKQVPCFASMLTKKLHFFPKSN
The test can be described thus: Caspase-6 inhibitor screening assay (BioVision kit, VEID-AFC). The note with it: for inhibition at 10 µM: read-out: % Inhibition at 10 uM Casp6; for inhibition at 100 µM: read-out: % Inhibition at 100 uM Casp6; for IC50: read-out: IC50 Casp6. How it is done:
as §1, §2, §3, §4

The target in the next test is T5, Caspase-8 (Homo sapiens, UniProt Q14790).
T5 construct: mixing the compounds with the respective active caspases; purchased BioVision K158-100
The test can be described thus: Caspase-8 inhibitor screening assay (BioVision kit, IETD-AFC). The note with it: for inhibition at 10 µM: read-out: % Inhibition at 10 uM Casp8; for inhibition at 100 µM: read-out: % Inhibition at 100 uM Casp8. How it is done:
as §1, §2, §3, §4

In the next test the target is T6, Caspase-10 (Homo sapiens, UniProt Q92851).
T6 construct: mixing the compounds with the respective active caspases; purchased BioVision K160-100
T6 sequence (Q92851 220-415 limits assumed): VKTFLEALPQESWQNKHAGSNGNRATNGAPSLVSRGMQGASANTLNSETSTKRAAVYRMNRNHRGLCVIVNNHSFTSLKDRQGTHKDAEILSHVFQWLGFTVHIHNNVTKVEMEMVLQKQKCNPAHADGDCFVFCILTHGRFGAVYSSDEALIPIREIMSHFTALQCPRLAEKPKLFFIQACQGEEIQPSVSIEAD
T6 sequence (Q92851 416-521 limits assumed): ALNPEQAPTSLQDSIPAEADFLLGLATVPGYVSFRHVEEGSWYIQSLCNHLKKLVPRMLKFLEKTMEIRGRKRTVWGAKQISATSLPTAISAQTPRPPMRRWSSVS
Kind of test: Caspase-10 inhibitor screening assay (BioVision kit, AEVD-AFC). The note with it: for inhibition at 10 µM: read-out: % Inhibition at 10 uM Casp10; for inhibition at 100 µM: read-out: % Inhibition at 100 uM Casp10. How it is done: as §1, §2, §3, §4

Molecules are shown by their SMILES. Like-named read-outs stand apart in the source and are kept apart here.

For four molecules, inhibition and IC50 results are on record in patent US10975119B2, “Selective cysteine protease inhibitors and uses thereof” (Genesis Technologies Limited, priority 2011, dated 2021).

T5 sequence (Q14790 217-374 limits assumed): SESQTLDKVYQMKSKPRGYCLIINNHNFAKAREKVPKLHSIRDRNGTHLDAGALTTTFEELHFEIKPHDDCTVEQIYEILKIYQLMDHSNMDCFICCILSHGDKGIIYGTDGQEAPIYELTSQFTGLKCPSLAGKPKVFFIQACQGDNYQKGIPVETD
T5 sequence (Q14790 385-479 limits assumed): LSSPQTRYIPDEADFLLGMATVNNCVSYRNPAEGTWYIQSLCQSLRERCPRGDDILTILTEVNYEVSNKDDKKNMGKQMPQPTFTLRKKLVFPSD

Consider `CCOC(=O)/C=C/[C@H](CC(=O)O)NC(=O)[C@@H](NC(=O)[C@@H](NC(=O)[C@H](CC(=O)O)NC(=O)OCc1ccccc1)c1ccccc1)C(C)C` [Compound 105, Z-Asp-Phg-Val-Asp Ethyl Vinyl Ester], for which the inhibition at 10 µM on Caspase-3 worked out at 99%; on Caspase-4, 100%; at Caspase-5, 41%; at Caspase-6, 13%; on Caspase-8 it was 77%; on Caspase-10 it was 96%. Also, the inhibition at 100 µM was 100% at Caspase-3; 98% on Caspase-4; 41% at Caspase-5; 10% at Caspase-6; 79% on Caspase-8; 99% on Caspase-10. Further, the concentration for half-maximal inhibition (IC50) on Caspase-3 (read-out: IC50 Casp3) was 0.03 µM; at Caspase-3 (read-out: potency (IC50) against caspase-3), 0.027 µM; at Caspase-4 it was 0.51 µM; on Caspase-8 (read-out: IC50 Casp8), 2.62 µM; at Caspase-8 (read-out: potency (IC50) against caspase-8) it was 2.62 µM; at Caspase-10 (read-out: IC50 Casp10), 0.59 µM. Also, the IC50 on Caspase-10 (read-out: potency (IC50) against caspase-10) was determined as 0.592 µM.
In the case of `CCOC(=O)/C=C/[C@H](CC(=O)O)NC(=O)[C@H]1CCCN1C(=O)[C@@H](NC(=O)c1ccc2ccccc2n1)C(C)(C)C` [Compound 118, 2-Quinoline carbonyl-t-Leu-Pro-Asp Ethyl Vinyl Ester], the inhibition at 10 µM at Caspase-3 worked out at 0%; at Caspase-4 it was 100%; on Caspase-5, 88%; on Caspase-6 it was 3%; on Caspase-8, 36%; on Caspase-10 it was 59%. The inhibition at 100 µM worked out at 15% on Caspase-3; 100% at Caspase-4; 99% on Caspase-5; 6% on Caspase-6; 89% at Caspase-8; 97% on Caspase-10. Moreover, the IC50 on Caspase-3 (read-out: IC50 Casp3) was over 100 µM; on Caspase-4, 0.6 µM; at Caspase-5 it was 1.95 µM; on Caspase-6, over 100 µM; at Caspase-8 (read-out: IC50 Casp8), 21.1 µM; on Caspase-10 (read-out: IC50 Casp10), 8.05 µM.
Consider `CC(C)[C@H](NC(=O)[C@@H](N)Cc1ccc(O)cc1)C(=O)N[C@@H](C)C(=O)N[C@H](/C=C/S(C)(=O)=O)CC(=O)O` [Compound 42, Tyr-Val-Ala-Asp methyl vinyl sulfone], for which the inhibition at 10 µM on Caspase-3 came out at 0%; at Caspase-4, 28%; on Caspase-5 it was 43%; on Caspase-6, 6%; on Caspase-8, 12%; on Caspase-10, 13%. Further, the inhibition at 100 µM worked out at 0% on Caspase-3; 100% on Caspase-4; 93% on Caspase-5; 4% on Caspase-6; 30% on Caspase-8; 79% on Caspase-10. Further, the 50% inhibitory concentration (IC50) at Caspase-3 (read-out: IC50 Casp3) was over 100 µM; on Caspase-4, 17.1 µM; on Caspase-5, 12.4 µM; on Caspase-6 it was over 100 µM; on Caspase-8 (read-out: IC50 Casp8), over 100 µM; at Caspase-10 (read-out: IC50 Casp10), 34 µM.
With `CS(=O)(=O)/C=C/[C@H](CC(=O)O)NC(=O)[C@H]1CCC(=O)N1` [Compound 24, (2-Pyrrolidinone-5-carbonyl)-Asp methyl vinyl sulfone], the inhibition at 10 µM on Caspase-3 was 0%; at Caspase-4 it was 1%; at Caspase-5, 0%; on Caspase-6 it was 0%; at Caspase-8, 0%; on Caspase-10, 21%. Also, the inhibition at 100 µM at Caspase-3 was found to be 0%; at Caspase-4 it was 0%; on Caspase-5, 0%; on Caspase-6 it was 0%; on Caspase-8, 0%; at Caspase-10, 15%. In addition, the IC50 at Caspase-3 (read-out: IC50 Casp3), on Caspase-4, on Caspase-5, at Caspase-6, at Caspase-8 (read-out: IC50 Casp8) and on Caspase-10 (read-out: IC50 Casp10) was over 100 µM in each case.
